Test results taken from PubChem BioAssay AID1963858 (Molecular Pharmacology Branch, DTP, NCI, 2024).

Test system: HOP-62 multicell spheroids with HUVEC/MSC, viability
Assay: Anticancer human tumor HOP-62 cell line growth inhibition [KRAS2];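 further: viability read after a week of compound exposure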;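 on viability, T/C: 100% = DMSO vehicle-treated spheroids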
Conditions: for IC50: curve of first compound; for viability, T/C: stronger effect = lower value
How it was run: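 KRAS-mutant tumor cells were grown as spheroids with HUVEC endothelial cells and human MSCs as stroma. Targeted agents were tested alone and with KRAS pathway inhibitors. Doses started at or near clinical Cmax, or 10 microM, descending half-log.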

[1] = second compound 0.1 µM, first compound 0.01 µM
[2] = second compound 0.1 µM, first compound 0.0316 µM
[3] = second compound 0.1 µM, first compound 0.1 µM
[4] = second compound 0.1 µM, first compound 0.316 µM
[5] = second compound 0.1 µM, first compound 1 µM
[6] = second compound 0.1 µM, first compound 3.16 µM
[7] = second compound 0.316 µM, first compound 0.01 µM
[8] = second compound 0.316 µM, first compound 0.0316 µM
[9] = second compound 0.316 µM, first compound 0.1 µM
[10] = second compound 0.316 µM, first compound 0.316 µM
[11] = second compound 0.316 µM, first compound 1 µM
[12] = second compound 0.316 µM, first compound 3.16 µM
[13] = second compound 1 µM, first compound 0.01 µM
[14] = second compound 1 µM, first compound 0.0316 µM
[15] = second compound 1 µM, first compound 0.1 µM
[16] = second compound 1 µM, first compound 0.316 µM
[17] = second compound 1 µM, first compound 1 µM
[18] = second compound 1 µM, first compound 3.16 µM
[19] = second compound 3.16 µM, first compound 0.01 µM
[20] = second compound 3.16 µM, first compound 0.0316 µM
[21] = second compound 3.16 µM, first compound 0.1 µM
[22] = second compound 3.16 µM, first compound 0.316 µM
[23] = second compound 3.16 µM, first compound 1 µM
[24] = second compound 3.16 µM, first compound 3.16 µM
[25] = second compound 10 µM, first compound 0.01 µM
[26] = second compound 10 µM, first compound 0.0316 µM
[27] = second compound 10 µM, first compound 0.1 µM
[28] = second compound 10 µM, first compound 0.316 µM
[29] = second compound 10 µM, first compound 1 µM
[30] = second compound 10 µM, first compound 3.16 µM

SMILES | IC50 (second compound 0.1 µM) [nM] | IC50 (second compound 0.316 µM) [nM] | IC50 (second compound 1 µM) [nM] | IC50 (second compound 3.16 µM) [nM] | IC50 (second compound 10 µM) [nM] | viability, T/C [2] [%] | viability, T/C [3] [%] | viability, T/C [4] [%] | viability, T/C [5] [%] | viability, T/C [6] [%] | viability, T/C [8] [%] | viability, T/C [9] [%] | viability, T/C [10] [%] | viability, T/C [11] [%] | viability, T/C [12] [%] | viability, T/C [14] [%] | viability, T/C [15] [%] | viability, T/C [16] [%] | viability, T/C [17] [%] | viability, T/C [18] [%] | also measured
CC1COCCN1c1cc(-c2ccnn2C)c2ccnc(-c3ccn[nH]3)c2n1 (stereo not given) + CC1OCC2(CCN(c3cnc(Sc4ccnc(N)c4Cl)c(N)n3)CC2)C1N | 39.8 | 35.8 | 21.8 | 14.6 | < 10 | 56.7 | 23 | 12.7 | 11.5 | 13.7 | 53.2 | 23.8 | 14 | 11.9 | 11.9 | 37 | 20.2 | 13.4 | 10.1 | 8.68 | viability, T/C [1]: 94.7%; viability, T/C [7]: 87.3%; viability, T/C [13]: 76.6%; viability, T/C [19]: 59.4%; viability, T/C [20]: 30.6%; viability, T/C [21]: 18.1%; viability, T/C [22]: 11.7%; viability, T/C [23]: 9.08%; viability, T/C [24]: 9.24%; viability, T/C [25]: 46.9%; viability, T/C [26]: 26.4%; viability, T/C [27]: 16.8%; viability, T/C [28]: 13.6%; viability, T/C [29]: 11.2%; viability, T/C [30]: 9.36%
Cn1nccc1Nc1nccc(-c2cc3c(s2)C(C)(C)N(CCN2CCOCC2)C3=O)n1 + CC1OCC2(CCN(c3cnc(Sc4ccnc(N)c4Cl)c(N)n3)CC2)C1N | 803 | 331 | 97.8 | < 31.6 | < 31.6 | 94.3 | 85.4 | 70 | 48.6 | 21.4 | 85.2 | 71.6 | 51.8 | 30.8 | 21.8 | 62.9 | 48.4 | 36 | 21.2 | 18.1 | viability, T/C (second compound 0.1 µM, first compound 10 µM): 24.1%; viability, T/C (second compound 0.316 µM, first compound 10 µM): 20.5%; viability, T/C (second compound 1 µM, first compound 10 µM): 18.7%; viability, T/C [20]: 40.2%; viability, T/C [21]: 35.4%; viability, T/C [22]: 31.9%; viability, T/C [23]: 15.7%; viability, T/C [24]: 14.9%; viability, T/C (second compound 3.16 µM, first compound 10 µM): 16.6%; viability, T/C [26]: 29.6%; viability, T/C [27]: 35.7%; viability, T/C [28]: 18.7%; viability, T/C [29]: 17.1%; viability, T/C [30]: 13.7%; viability, T/C (second compound 10 µM, first compound 10 µM): 11.9%
CC(=O)OC12COC1CC(O)C1(C)C(=O)C(O)C3=C(C)C(OC(=O)C(O)C(NC(=O)OC(C)(C)C)c4ccccc4)CC(O)(C(OC(=O)c4ccccc4)C21)C3(C)C (stereo not given) + CNCc1ccccc1-c1csc(C(C)Nc2nc(C)nc3cc(OC)c(OC)cc23)c1 | < 10 | < 10 | < 10 | < 10 | < 10 | 35.2 | 38.1 | 35 | 34.9 | 45.7 | 33 | 38.1 | 31.7 | 29.2 | 37 | 28.4 | 28 | 33.6 | 39.8 | 42.4 | viability, T/C [1]: 36.4%; viability, T/C [7]: 34.3%; viability, T/C [13]: 34%; viability, T/C [19]: 26.4%; viability, T/C [20]: 0.11%; viability, T/C [21]: 0.07%; viability, T/C [22]: 0.09%; viability, T/C [23]: 0.11%; viability, T/C [24]: 34.9%; viability, T/C [25]: 3.3%; viability, T/C [26]: 1.3%; viability, T/C [27]: 0.1%; viability, T/C [28]: 0.14%; viability, T/C [29]: 30.4%; viability, T/C [30]: 2.73%
